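Step 1: Grow cells in 96-well plates. Step 2: Expose to compound for 48 hours at 5 concentrations. Step 3: Interpolate endpoints linearly; if unreached, use highest concentration. The concentration for 50% growth inhibition is given as GI50.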 The source made the active and inactive calls. No stated cut-off is given here; in the data, active = GI50 up to about 1.1 µM and inactive = higher.
Columns and labels:
Experiment in all cases: growth of human tumour cells (NCI), 48 h
CCRF-CEM = system: CCRF-CEM
NCI-H226 = system: NCI-H226
OVCAR-4 = system: OVCAR-4
SK-OV-3 = system: SK-OV-3
HOP-62 = system: HOP-62
HCT-116 = system: HCT-116
COLO 205 = system: COLO 205
MDA-MB-231 = system: MDA-MB-231
MDA-N = system: MDA-N
MDA-MB-435 = system: MDA-MB-435
HCT-15 = system: HCT-15
SNB-75 = system: SNB-75
TK-10 = system: TK-10
OVCAR-3 = system: OVCAR-3
HCC 2998 = system: HCC 2998
SK-MEL-28 = system: SK-MEL-28
IGROV-1 = system: IGROV-1
NCI/ADR-RES = system: NCI/ADR-RES
HOP-92 = system: HOP-92

Row | Structure (SMILES) | GI50 (CCRF-CEM) | GI50 (NCI-H226) | GI50 (OVCAR-4) | GI50 (SK-OV-3) | GI50 (HOP-62) | GI50 (HCT-116) | GI50 (COLO 205) | GI50 (MDA-MB-231) | GI50 (MDA-N) | GI50 (MDA-MB-435) | GI50 (HCT-15) [µM] | GI50 (SNB-75) | GI50 (TK-10) | GI50 (OVCAR-3) | GI50 (HCC 2998) | GI50 (SK-MEL-28) | GI50 (IGROV-1) | GI50 (NCI/ADR-RES) | GI50 (HOP-92)
1 | COC1C(OC(=O)c2ccc(C)[nH]2)C(O)C(Oc2ccc3c(O)c(NC(=O)c4ccc(O)c(CC=C(C)C)c4)c(=O)oc3c2Cl)OC1(C)C (configuration not stated) | 18.1 µM (inactive) | 12.5 µM (inactive) | 26.6 µM (inactive) | 20.4 µM (inactive) | 15.5 µM (inactive) | 16.4 µM (inactive) | 15.9 µM (inactive) | 21.1 µM (inactive) | 23 µM (inactive) | 30.2 µM (inactive) | 18.5 | 19.1 µM (inactive) | 55.3 µM (inactive) | 18.7 µM (inactive) | 18.1 µM (inactive) | 16.3 µM (inactive) | 15.5 µM (inactive) | – | –
2 | Nc1cc(Cl)ccc1SSc1ccc(Cl)cc1N | 3.07 µM (inactive) | 2.94 µM (inactive) | 13.6 µM (inactive) | 15.7 µM (inactive) | 14.6 µM (inactive) | 9.16 µM (inactive) | 16.8 µM (inactive) | 5.6 µM (inactive) | – | 12.9 µM (inactive) | 2.99 | 16.8 µM (inactive) | 20.2 µM (inactive) | – | – | 15.9 µM (inactive) | 10.1 µM (inactive) | 7.94 µM (inactive) | 41.7 µM (inactive)
3 | COC(=O)C1CC2CC(=NNC(N)=O)CC2C1 (configuration not stated) | > 100 µM (inactive) | – | > 100 µM (inactive) | > 100 µM (inactive) | > 100 µM (inactive) | > 100 µM (inactive) | > 100 µM (inactive) | – | – | – | > 100 | > 100 µM (inactive) | > 100 µM (inactive) | > 100 µM (inactive) | > 100 µM (inactive) | > 100 µM (inactive) | > 100 µM (inactive) | – | > 100 µM (inactive)
4 | CCOC(=O)c1ccc(Nc2nc3ccc(C(F)(F)F)cc3nc2-c2ccccc2)cc1 | 63.4 µM (inactive) | > 100 µM (inactive) | – | – | 80 µM (inactive) | 84.9 µM (inactive) | – | – | – | > 100 µM (inactive) | 15.4 | 41.3 µM (inactive) | > 100 µM (inactive) | > 100 µM (inactive) | 84.1 µM (inactive) | > 100 µM (inactive) | 71.9 µM (inactive) | > 100 µM (inactive) | –
5 | Nc1cc(N2CCCC2)nc(=O)n1-c1ccccc1 | > 100 µM (inactive) | 54.2 µM (inactive) | > 100 µM (inactive) | – | > 100 µM (inactive) | > 100 µM (inactive) | > 100 µM (inactive) | > 100 µM (inactive) | – | > 100 µM (inactive) | > 100 | > 100 µM (inactive) | > 100 µM (inactive) | – | 20.7 µM (inactive) | > 100 µM (inactive) | > 100 µM (inactive) | > 100 µM (inactive) | > 100 µM (inactive)
6 | CC(=O)Oc1c(C)cc(-c2cc(C)c(OC(C)=O)c(C)c2)cc1C | 31 µM (inactive) | 29.7 µM (inactive) | 82.6 µM (inactive) | 19.5 µM (inactive) | 45.7 µM (inactive) | 41.1 µM (inactive) | 50.4 µM (inactive) | – | 4.98 µM (inactive) | 3.05 µM (inactive) | 20.3 | 16.2 µM (inactive) | 30.5 µM (inactive) | 90.2 µM (inactive) | – | 27.6 µM (inactive) | 40.9 µM (inactive) | 21.1 µM (inactive) | 36.3 µM (inactive)
7 | COc1ccc(CNC(=O)NCn2cc(-c3ccccc3)nn2)cc1 | > 100 µM (inactive) | – | > 100 µM (inactive) | – | > 100 µM (inactive) | > 100 µM (inactive) | > 100 µM (inactive) | > 100 µM (inactive) | – | > 100 µM (inactive) | > 100 | > 100 µM (inactive) | > 100 µM (inactive) | – | 14.1 µM (inactive) | > 100 µM (inactive) | > 100 µM (inactive) | > 100 µM (inactive) | > 100 µM (inactive)
8 | Cc1ccc(S(=O)(=O)NC(=O)NCc2ccc(S(N)(=O)=O)cc2)cc1 | – | > 100 µM (inactive) | > 100 µM (inactive) | > 100 µM (inactive) | > 100 µM (inactive) | > 100 µM (inactive) | > 100 µM (inactive) | > 100 µM (inactive) | – | > 100 µM (inactive) | > 100 | > 100 µM (inactive) | > 100 µM (inactive) | > 100 µM (inactive) | > 100 µM (inactive) | > 100 µM (inactive) | > 100 µM (inactive) | > 100 µM (inactive) | > 100 µM (inactive)
9 | CN(C)CCNc1ccc(NCCN(C)C)c2c1C(=O)c1ncsc1C2=O | 3.08 µM (inactive) | 2.53 µM (inactive) | 10.2 µM (inactive) | 18.8 µM (inactive) | 13.2 µM (inactive) | 8.18 µM (inactive) | 12.4 µM (inactive) | 15.9 µM (inactive) | – | 13.6 µM (inactive) | 11.4 | 15.8 µM (inactive) | 24.8 µM (inactive) | 4.65 µM (inactive) | 15 µM (inactive) | 15.3 µM (inactive) | 13.5 µM (inactive) | 35.7 µM (inactive) | 15.2 µM (inactive)
10 | Clc1cc2ccccc2c2ccccc12 | < 0.01 µM (active) | > 100 µM (inactive) | 42.1 µM (inactive) | – | > 100 µM (inactive) | > 100 µM (inactive) | 26.9 µM (inactive) | > 100 µM (inactive) | – | 28.2 µM (inactive) | 25.6 | > 100 µM (inactive) | > 100 µM (inactive) | 52.2 µM (inactive) | 41 µM (inactive) | 46.2 µM (inactive) | 64 µM (inactive) | > 100 µM (inactive) | 38.5 µM (inactive)
11 | Nc1ncnc2c1ncn2C1OC(COC2C(CO)OC(OC(C(=O)O)C(O)C(OP(=O)(O)O)C(O)C(=O)O)C(O)C2O)C(O)C1O (configuration not stated) | > 100 µM (inactive) | > 100 µM (inactive) | > 100 µM (inactive) | > 100 µM (inactive) | > 100 µM (inactive) | > 100 µM (inactive) | > 100 µM (inactive) | > 100 µM (inactive) | – | > 100 µM (inactive) | > 100 | > 100 µM (inactive) | > 100 µM (inactive) | > 100 µM (inactive) | > 100 µM (inactive) | > 100 µM (inactive) | > 100 µM (inactive) | – | –
12 | C=C1C(=O)OC2/C=C(\C)C(O)CC(O)C(C)(O)CC(OC(=O)/C(C)=C/C)C12 (configuration not stated) | 34.3 µM (inactive) | 33.4 µM (inactive) | 45.2 µM (inactive) | 53.5 µM (inactive) | > 100 µM (inactive) | 32.9 µM (inactive) | 57.8 µM (inactive) | 49.5 µM (inactive) | 37.3 µM (inactive) | 36.5 µM (inactive) | 28.4 | 38.2 µM (inactive) | > 67.5 µM (inactive) | 44.2 µM (inactive) | 34.9 µM (inactive) | 47.9 µM (inactive) | 31.7 µM (inactive) | – | 41.9 µM (inactive)
13 | C=C1OC2OC(C)C(NC(=O)OCC(Cl)(Cl)Cl)C(OC(C)=O)C2O1 (configuration not stated) | > 100 µM (inactive) | 43.6 µM (inactive) | > 100 µM (inactive) | > 100 µM (inactive) | > 100 µM (inactive) | > 100 µM (inactive) | > 100 µM (inactive) | > 100 µM (inactive) | – | > 100 µM (inactive) | > 100 | – | > 100 µM (inactive) | > 100 µM (inactive) | > 100 µM (inactive) | > 100 µM (inactive) | > 100 µM (inactive) | > 100 µM (inactive) | > 100 µM (inactive)
14 | COC(=O)[C@@H]1[C@H](O)CCC2=C(CC(=O)c3ccoc3)[C@H](C)CC[C@]21C | – | 46.2 µM (inactive) | 45 µM (inactive) | > 50 µM (inactive) | > 50 µM (inactive) | 22.6 µM (inactive) | > 50 µM (inactive) | > 50 µM (inactive) | 24.5 µM (inactive) | – | 46.1 | 16.7 µM (inactive) | > 50 µM (inactive) | 26.2 µM (inactive) | > 50 µM (inactive) | > 50 µM (inactive) | > 50 µM (inactive) | 22.2 µM (inactive) | > 50 µM (inactive)
15 | Cc1cn(CC2=NC3CCCCC3N2)c(=O)[nH]c1=O (configuration not stated) | > 100 µM (inactive) | > 100 µM (inactive) | – | > 100 µM (inactive) | > 100 µM (inactive) | > 100 µM (inactive) | > 100 µM (inactive) | > 100 µM (inactive) | – | – | > 100 | > 100 µM (inactive) | > 100 µM (inactive) | – | > 100 µM (inactive) | > 100 µM (inactive) | > 100 µM (inactive) | > 100 µM (inactive) | > 100 µM (inactive)
16 | COc1c(O)cc2c(c1O)C(=O)C1=C(CCCC1)C2=O | 1.87 µM (inactive) | 30.5 µM (inactive) | 21.6 µM (inactive) | 19.8 µM (inactive) | 33.4 µM (inactive) | 12.5 µM (inactive) | 19.1 µM (inactive) | 19 µM (inactive) | – | 26.9 µM (inactive) | 26.1 | – | 34.3 µM (inactive) | 20.3 µM (inactive) | 21.9 µM (inactive) | 24 µM (inactive) | 12.6 µM (inactive) | 17.3 µM (inactive) | 21.7 µM (inactive)
17 | CN1C(=O)C(=Cc2ccc(Br)cc2)C(=O)N(C)C1=O | > 100 µM (inactive) | > 100 µM (inactive) | > 100 µM (inactive) | > 100 µM (inactive) | > 100 µM (inactive) | > 100 µM (inactive) | > 100 µM (inactive) | > 100 µM (inactive) | – | > 100 µM (inactive) | > 100 | > 100 µM (inactive) | > 100 µM (inactive) | > 100 µM (inactive) | > 100 µM (inactive) | > 100 µM (inactive) | – | > 100 µM (inactive) | > 100 µM (inactive)

From ChEMBL document CHEMBL1201862, “PubChem BioAssay data set” (2004)
